The values that follow come from PubChem BioAssay AID1053149 (Broad Institute, 2014).

Experiment [1] concerns HepG2 secreted PCSK9, ELISA, 24 h. As to the kind of experiment: reduction of secreted PCSK9 protein, dose response, orthogonal assay for Trib1 inducer project, cell-based, HepG2, ELISA, plate reader, cherry-pick (AID 1053149).
Assay in experiment [2]: as above
The settings on record: HepG2 secreted PCSK9, ELISA, 24 h; measured here: maximal PCSK9 decrease; stronger effect = higher value. For orientation: ELISA stands for enzyme-linked immunosorbent assay.

What is called AC50 is the concentration giving half of the maximal activity seen. Turning to `CN1C(=O)c2cc(NC(=O)c3ccc(C(F)(F)F)cc3)ccc2OC[C@@H]2O[C@@H](CC(=O)NC3Cc4ccccc4C3)CC[C@@H]21`, in experiment [1], the concentration at half-maximal activity (AC50) was 6.6 µM. Moreover, the decrease in PCSK9 in experiment [2] came to 80%.

As to `CN1C(=O)c2cc(NC(=O)c3ccc(C(F)(F)F)cc3)ccc2OC[C@@H]2O[C@H](CC(=O)NC3Cc4ccccc4C3)CC[C@@H]21`, in experiment [1], the AC50 is 0.6 µM. Further, the decrease in PCSK9 in experiment [2] turned out to be 79%.
